Here are results for 29 compounds from patent publication US12344597B2, “Alkoxy-substituted pyridinyl derivatives as LPA1 receptor antagonists and their use in the treatment of fibrosis” (IDORSIA PHARMACEUTICALS LTD, priority 2018, dated 2025).

Each structure is given as a SMILES string.

human LPA1 receptor, sequence (Q92633 whole entry, the tested form may be a part): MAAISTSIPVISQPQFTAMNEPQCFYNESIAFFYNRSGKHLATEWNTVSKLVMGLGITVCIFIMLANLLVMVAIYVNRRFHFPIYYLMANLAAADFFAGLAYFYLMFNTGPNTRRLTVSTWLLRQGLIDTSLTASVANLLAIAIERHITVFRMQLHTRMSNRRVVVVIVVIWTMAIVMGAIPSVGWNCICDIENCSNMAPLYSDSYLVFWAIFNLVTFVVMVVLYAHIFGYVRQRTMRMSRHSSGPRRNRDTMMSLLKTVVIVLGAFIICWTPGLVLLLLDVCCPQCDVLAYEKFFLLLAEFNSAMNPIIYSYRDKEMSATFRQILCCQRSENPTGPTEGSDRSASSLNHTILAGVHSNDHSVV

In the test the target is human LPA1 receptor (Homo sapiens (Human), UniProt Q92633). The experiment in a line: Beta-arrestin recruitment assay to determine IC50 values for human LPAR1. It counts as cell-based. The note with it: antagonist mode, Tango EDG2-bla U2OS cells, LPA 18:1 500 nM final. In a few lines:
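Tango EDG2-bla U2OS cells: LPA-driven beta-arrestin/TEV protease recruitment releases Gal4-VP16, inducing beta-lactamase reporter read with live-cell substrate. Cells seeded 20 h at 37 °C beforehand. IC50 is antagonist concentration inhibiting 50% of maximal response.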
Background: Arrestin recruitment assays detect the binding of arrestin to an activated receptor.
In turn, `Cc1ccc(NC(=O)C2(c3ccccc3C(C)C)CN(S(=O)(=O)NCCF)C2)c(OC(F)F)n1` [Ex 15-4, N-(2-(difluoromethoxy)-6-methylpyridin-3-yl)-1-(N-(2-fluoroethyl)sulfamoyl)-3-(2-isopropylphenyl)azetidine-3-carboxamide] returned an IC50 of 15 nM.
To `Cc1ccc(NC(=O)C2(c3ccccc3C(C)C)CCN(C(=O)CNCCO)CC2)c(OC(F)F)n1` [Ex 12-50, N-(2-(difluoromethoxy)-6-methylpyridin-3-yl)-1-((2-hydroxyethyl)glycyl)-4-(2-isopropylphenyl)piperidine-4-carboxamide] belongs 9 nM.
Compound `Cc1ccc(NC(=O)C2(c3ccccc3C(C)C)CN(CCC(C)(C)C(N)=O)C2)c(OC(F)F)n1` [Ex 11-93, 1-(4-amino-3,3-dimethyl-4-oxobutyl)-N-(2-(difluoromethoxy)-6-methylpyridin-3-yl)-3-(2-isopropylphenyl)azetidine-3-carboxamide] gave a concentration for half-maximal inhibition (IC50) of 65 nM.
Turning to `COC(=O)CCC(=O)N1CCC(C(=O)Nc2ccc(C)nc2OC(F)F)(c2ccccc2C(C)C)CC1` [Ex 12-72, methyl 4-(4-((2-(difluoromethoxy)-6-methylpyridin-3-yl)carbamoyl)-4-(2-isopropylphenyl)piperidin-1-yl)-4-oxobutanoate], the IC50 was 4 nM.
`COC(=O)[C@H]1C[C@H]1C(=O)N1CC(C(=O)Nc2ccc(C)nc2OC(F)F)(c2ccccc2C(C)C)C1` [Ex 12-94, methyl (1S,2R)-2-(3-((2-(difluoromethoxy)-6-methylpyridin-3-yl)carbamoyl)-3-(2-isopropylphenyl)azetidine-1-carbonyl)cyclopropane-1-carboxylate] came in with an IC50 of 51 nM.
As to `Cc1ccc(NC(=O)C2(c3ccccc3C(C)C)CN(CCC(C)(C)O)C2)c(OC(F)F)n1` [Ex 11-9, N-(2-(difluoromethoxy)-6-methylpyridin-3-yl)-1-(3-hydroxy-3-methylbutyl)-3-(2-isopropylphenyl)azetidine-3-carboxamide], the IC50 came out at 14 nM.
To `Cc1ccc(NC(=O)C2(c3ccccc3C(C)C)CN(C(=O)[C@H]3CC[C@@H](C(=O)O)CC3)C2)c(OC(F)F)n1` [Ex 50, (1s,4s)-4-(3-((2-(difluoromethoxy)-6-methylpyridin-3-yl)carbamoyl)-3-(2-isopropylphenyl)azetidine-1-carbonyl)cyclohexane-1-carboxylic acid] belongs 68 nM; to `Cc1cnc(NC(=O)C2(c3ccccc3C(C)C)CN(C(=O)CC(C)(C)C(=O)O)C2)c(OC(F)F)c1` [Ex 79-6, 4-(3-((3-(difluoromethoxy)-5-methylpyridin-2-yl)carbamoyl)-3-(2-isopropylphenyl)azetidin-1-yl)-2,2-dimethyl-4-oxobutanoic acid], 200 nM.
To `COc1nc(C)ccc1NC(=O)C1(c2ccccc2C(C)C)CN(S(N)(=O)=O)C1` [Ex 15-16, 3-(2-isopropylphenyl)-N-(2-methoxy-6-methylpyridin-3-yl)-1-sulfamoylazetidine-3-carboxamide] belongs 50 nM; to `Cc1ccc(NC(=O)C2(c3ccccc3C(C)C)CN(C(=O)c3cc(O)no3)C2)c(OC(F)F)n1` [Ex 12-16, N-(2-(difluoromethoxy)-6-methylpyridin-3-yl)-1-(3-hydroxyisoxazole-5-carbonyl)-3-(2-isopropylphenyl)azetidine-3-carboxamide], 9 nM; to `Cc1ccc(NC(=O)C2(c3ccccc3C(C)C)CN(C(=O)C3C[C@H](O)CN3)C2)c(OC(F)F)n1` (stereo partly drawn) [Ex 12-41, N-(2-(difluoromethoxy)-6-methylpyridin-3-yl)-1-((4S)-4-hydroxypyrrolidine-2-carbonyl)-3-(2-isopropylphenyl)azetidine-3-carboxamide], 69 nM.
The same measure for `COC(=O)[C@@H](C)NC(=O)N1CC(C(=O)Nc2ccc(C)nc2OC(F)F)(c2ccccc2C(C)C)C1` [Ex 17-23, methyl (3-((2-(difluoromethoxy)-6-methylpyridin-3-yl)carbamoyl)-3-(2-isopropylphenyl)azetidine-1-carbonyl)-D-alaninate]: 5 nM; for `C=C(CC(=O)O)C(=O)N1CC(C(=O)Nc2ccc(C)nc2OC(F)F)(c2ccccc2C(C)C)C1` [Ex 12-93, 3-(3-((2-(difluoromethoxy)-6-methylpyridin-3-yl)carbamoyl)-3-(2-isopropylphenyl)azetidine-1-carbonyl)but-3-enoic acid]: 7 nM; for `COCCN(CC(=O)N1CCC(C(=O)Nc2ccc(C)nc2OC(F)F)(c2ccccc2C(C)C)CC1)C(=O)OC(C)(C)C` [Ex 12-47, tert-butyl (2-(4-((2-(difluoromethoxy)-6-methylpyridin-3-yl)carbamoyl)-4-(2-isopropylphenyl)piperidin-1-yl)-2-oxoethyl)(2-methoxyethyl)carbamate]: 59 nM.
With `CC(C)c1ccccc1C1(C(=O)Nc2cccnc2OC(F)F)CN(S(N)(=O)=O)C1` [Ex 15-6, N-(2-(difluoromethoxy)pyridin-3-yl)-3-(2-isopropylphenyl)-1-sulfamoylazetidine-3-carboxamide], the half-maximal inhibitory concentration (IC50) came to 10 nM.
The same measure for `Cc1ccc(NC(=O)C2(c3ccccc3C(C)C)CN(c3ccc(C(=O)O)nn3)C2)c(OC(F)F)n1` [Ex 18-7, 6-(3-((2-(difluoromethoxy)-6-methylpyridin-3-yl)carbamoyl)-3-(2-isopropylphenyl)azetidin-1-yl)pyridazine-3-carboxylic acid]: 12 nM.
To `Cc1ccc(NC(=O)C2(c3ccccc3C(C)C)CN(S(=O)(=O)c3cn[nH]c3C(=O)O)C2)c(OC(F)F)n1` [Ex 13-23, 4-((3-((2-(difluoromethoxy)-6-methylpyridin-3-yl)carbamoyl)-3-(2-isopropylphenyl)azetidin-1-yl)sulfonyl)-1H-pyrazole-5-carboxylic acid] belongs 100 nM; to `Cc1ccc(NC(=O)C2(c3ccccc3C(C)C)CN(C(=O)CCOCCOCCO)C2)c(OC(F)F)n1` [Ex 12-51, N-(2-(difluoromethoxy)-6-methylpyridin-3-yl)-1-(3-(2-(2-hydroxyethoxy)ethoxy)propanoyl)-3-(2-isopropylphenyl)azetidine-3-carboxamide], 360 nM.
To `COC(=O)c1cnc(N2CC(C(=O)Nc3ccc(C)nc3OC(F)F)(c3ccccc3C(C)C)C2)cn1` [Ex 18-8, methyl 5-(3-((2-(difluoromethoxy)-6-methylpyridin-3-yl)carbamoyl)-3-(2-isopropylphenyl)azetidin-1-yl)pyrazine-2-carboxylate] belongs 10 nM; to `CC(=O)N(CCC(=O)N1CC(C(=O)Nc2ccc(C)nc2OC(F)F)(c2ccccc2C(C)C)C1)OCc1ccccc1` [Ex 12-131, 1-(3-(N-(benzyloxy)acetamido)propanoyl)-N-(2-(difluoromethoxy)-6-methylpyridin-3-yl)-3-(2-isopropylphenyl)azetidine-3-carboxamide], 640 nM; to `CCOC(=O)CC(=O)N1CCC(C(=O)Nc2ccc(C)nc2OC(F)F)(c2ccccc2C(C)C)CC1` [Ex 12-65, ethyl-3-(4-((2-(difluoromethoxy)-6-methylpyridin-3-yl)carbamoyl)-4-(2-isopropylphenyl)piperidin-1-yl)-3-oxopropanoate], 3 nM.
In the case of `Cc1ccc(NC(=O)C2(c3ccccc3C(C)C)CN(C(=O)CCC(C)(C)C(=O)O)C2)c(OC(F)F)n1` [Ex 12-103, 5-(3-((2-(difluoromethoxy)-6-methylpyridin-3-yl)carbamoyl)-3-(2-isopropylphenyl)azetidin-1-yl)-2,2-dimethyl-5-oxopentanoic acid], the concentration for half-maximal inhibition (IC50) turned out to be 19 nM.
The same measure for `Cc1ccc(NC(=O)C2(c3ccccc3C(C)C)CN(C(=O)[C@H](O)[C@@H](O)C(=O)O)C2)c(OC(F)F)n1` [Ex 12-118, (2R,3R)-4-(3-((2-(difluoromethoxy)-6-methylpyridin-3-yl)carbamoyl)-3-(2-isopropylphenyl)azetidin-1-yl)-2,3-dihydroxy-4-oxobutanoic acid]: 30 nM.
To `Cc1ccc(NC(=O)C2(c3ccccc3C(C)C)CN(C(=O)NCCC(=O)O)C2)c(OC(F)F)n1` [Ex 17-5, 3-(3-((2-(difluoromethoxy)-6-methylpyridin-3-yl)carbamoyl)-3-(2-isopropylphenyl)azetidine-1-carboxamido)propanoic acid] belongs 41 nM; to `Cc1ccc(NC(=O)C2(c3ccccc3C(C)C)CN(CCN(C)C)C2)c(OC(F)F)n1` [Ex 11-78, N-(2-(difluoromethoxy)-6-methylpyridin-3-yl)-1-(2-(dimethylamino)ethyl)-3-(2-isopropylphenyl)azetidine-3-carboxamide], 191 nM.
As for `Cc1ccc(NC(=O)C2(c3ccccc3C(C)C)CN(C(=O)CCOCC(=O)OCc3ccccc3)C2)c(OC(F)F)n1` [Ex 12-109, benzyl 2-(3-(3-((2-(difluoromethoxy)-6-methylpyridin-3-yl)carbamoyl)-3-(2-isopropylphenyl)azetidin-1-yl)-3-oxopropoxy)acetate], inhibition was half-maximal at 20 nM (IC50).
In turn, `Cc1ccc(NC(=O)C2(c3ccccc3C(C)C)CCN(C(=O)CC(=O)O)CC2)c(OC(F)F)n1` [Ex 12-66, 3-(4-((2-(difluoromethoxy)-6-methylpyridin-3-yl)carbamoyl)-4-(2-isopropylphenyl)piperidin-1-yl)-3-oxopropanoic acid] yielded a concentration for half-maximal inhibition (IC50) of 12 nM.
`Cc1ccc(NC(=O)C2(c3ccccc3C(C)C)CN(Cc3ccc(C(=O)O)[nH]3)C2)c(OC(F)F)n1` [Ex 11-44, 5-((3-((2-(difluoromethoxy)-6-methylpyridin-3-yl)carbamoyl)-3-(2-isopropylphenyl)azetidin-1-yl)methyl)-1H-pyrrole-2-carboxylic acid] yielded an IC50 of 5 nM.
To `CCCOc1nc(C)ccc1NC(=O)C1(c2ccccc2C(C)C)CN(S(N)(=O)=O)C1` [Ex 59, 3-(2-isopropylphenyl)-N-(6-methyl-2-propoxypyridin-3-yl)-1-sulfamoylazetidine-3-carboxamide] belongs 270 nM.

Usually IC50 stands for the concentration that inhibits the measured activity by half. A higher IC50 goes with a need for much substance.
